Data taken from ChEMBL document CHEMBL1201862, “PubChem BioAssay data set” (2004).
Active and inactive are the calls of the source.

Experiments:
[1] = molecular target: G-protein coupled receptor 55 (Homo sapiens, UniProt Q9Y2T6); assay: GPR55 antagonists, SAR follow-up, counter-screen for GPR35 antagonist project, imaging, image-based (AID 2397); assay type: functional
[2] = molecular target: T1, G-protein coupled receptor 35 (Homo sapiens, UniProt Q9HC97); assay: GPR35 antagonists blocking zaprinast-driven arrestin recruitment, primary screen, imaging, U2OS, beta-arrestin-GFP, zaprinast agonist (AID 2058); assay type: functional;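 note: antagonist potency meaning inhibition of agonist-induced arrestin redistribution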
[3] = molecular target: T1, G-protein coupled receptor 35; assay: SAR Analysis for the identification of Selective Antagonists of ERK1/2 Activity in GPR35-Overexpressing U2OS Cells. [Related pubchem assays: 2079, 2058 ]; assay type: functional, cell-based
[4] = cytotoxicity in HEK-293T cells, dose response, cytotoxicity control for BCR NF-kB inhibitor project, luminescence, B-cell screen hits (AID 489021); assay type: functional, cell-based;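 note: HEK-293T cells carrying an NF-kB luciferase reporter; cells exposed to compound for about 14 hours before viability readout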
[5] = growth induction of Burl-1 ts yeast mutant, dose response, counter-screen for SUMOylation pathway inhibitor project, whole organism, S. cerevisiae, luminescence (AID 463199); assay type: functional
[6] = molecular target: T2, Cytochrome P450 2C9 (Homo sapiens, UniProt P11712)
[7] = molecular target: CAAX prenyl protease 1 (Saccharomyces cerevisiae S288c, UniProt P47154); assay: Ste24 protease inhibitors, dose response, biochemical, S. cerevisiae, plate reader, cherry-pick (AID 488815)
[8] = molecular target: Trypsin (Sus scrofa, UniProt P00761); assay: porcine trypsin inhibitors, dose response, selectivity assay for Rce1 protease inhibitor project, biochemical, quenched peptide fluorescence, cherry-pick (AID 488789)
[9] = molecular target: T3, Mu-type opioid receptor (Homo sapiens, UniProt P35372); assay: SAR Analysis of Antagonists of the MOR Receptor using an Image-Based Assay - Set 2. [Related pubchem assays (depositor defined):AID1777, AID1785, AID1786, AID1966, AID2133, AID2136, AID2284, AID2285, AID2420]; assay type: functional
[10] = molecular target: T4, Kappa-type opioid receptor (Homo sapiens, UniProt P41145); assay: SAR analysis of small molecule agonists of the kappa opioid receptor via a luminescent beta-arrestin assay - Set 2. [Related pubchem assays (depositor defined):AID1777, AID1785, AID1786, AID1966, AID2133, AID2136, AID2284, AID449737]; assay type: functional
[11] = molecular target: T3, Mu-type opioid receptor; assay: SAR Analysis of Agonists of the MOR Receptor using an Image-Based Assay - Set 2. [Related pubchem assays (depositor defined):AID1777, AID1785, AID1786, AID1966, AID2133, AID2136, AID2284, AID2285, AID2352]; assay type: functional
[12] = molecular target: T5, Delta-type opioid receptor (Homo sapiens, UniProt P41143); assay: SAR Analysis of Antagonists of the DOR Receptor using an Image-Based Assay - Set 2. [Related pubchem assays (depositor defined):AID1777, AID1785, AID1786, AID1966, AID2133, AID2136, AID2284, AID2285, AID2357]; assay type: functional
[13] = molecular target: T4, Kappa-type opioid receptor; assay: SAR analysis of Antagonists of the Kappa Opioid Receptor (KOR) using an Image-Based Assay - Set 2. [Related pubchem assays (depositor defined):AID1777, AID1785, AID1786, AID1966, AID2133, AID2136, AID2284, AID2285, AID2348]; assay type: functional
[14] = molecular target: T4, Kappa-type opioid receptor; assay: SAR analysis of Agonists of the Kappa Opioid Receptor (KOR) using an Image-Based Assay - Set 2. [Related pubchem assays (depositor defined):AID1777, AID1786, AID1966, AID2133, AID2136, AID2284, AID2285, AID2359]; assay type: functional
[15] = molecular target: T5, Delta-type opioid receptor; assay: SAR Analysis of Agonists of the DOR Receptor using an Image-Based Assay - Set 2. [Related pubchem assays (depositor defined):AID1777, AID1785, AID1786, AID1966, AID2133, AID2136, AID2284, AID2285, AID2370]; assay type: functional
[16] = tested on: Streptococcus; assay: Group A Streptococcus viability loss, dose response, counter-screen for streptokinase expression inhibitor project, luminescence, BacTiterGlo (AID 1915); assay type: functional, organism-based;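 note: potency for reduction of bacterial viability or growth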
[17] = molecular target: T6, Cytochrome P450 1A2 (Homo sapiens, UniProt P05177);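 note: PubChem cytochrome P450 panel assay, CYP1A2 panel member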
T6 sequence (P05177 whole entry): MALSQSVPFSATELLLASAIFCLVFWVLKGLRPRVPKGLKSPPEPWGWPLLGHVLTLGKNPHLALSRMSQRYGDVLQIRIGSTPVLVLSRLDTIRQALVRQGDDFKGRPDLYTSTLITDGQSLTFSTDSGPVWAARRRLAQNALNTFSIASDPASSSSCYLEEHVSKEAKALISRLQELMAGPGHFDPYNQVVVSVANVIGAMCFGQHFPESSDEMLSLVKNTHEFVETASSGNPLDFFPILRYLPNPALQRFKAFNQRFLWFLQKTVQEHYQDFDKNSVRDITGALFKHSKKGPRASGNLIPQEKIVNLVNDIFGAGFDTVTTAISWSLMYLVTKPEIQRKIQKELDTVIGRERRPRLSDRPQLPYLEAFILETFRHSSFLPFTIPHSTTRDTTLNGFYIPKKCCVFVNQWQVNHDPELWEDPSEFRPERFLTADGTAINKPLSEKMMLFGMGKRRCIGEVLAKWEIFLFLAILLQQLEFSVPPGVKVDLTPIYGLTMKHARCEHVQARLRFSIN

[18] = tested on: Streptococcus sp. 'group A'; assay: growth inhibition of control SK(-) GAS strain, dose response, counter-screen for streptokinase expression inhibitor project, luminescence, kanamycin, BacTiterGlo, confirmation (AID 1900); assay type: functional, organism-based
[19] = molecular target: T2, Cytochrome P450 2C9; remark: listed apart in the source
[20] = molecular target: Cytochrome P450 2C19 (Homo sapiens, UniProt P33261); assay: Cytochrome panel assay with activity outcomes. Panel member name: p450-cyp2c19 Compounds with AC50 equal or less than 10 uM are considered active; assay type: functional
[21] = molecular target: T7, Streptokinase A (Streptococcus pyogenes serotype M1, UniProt P10520); assay: S. pyogenes streptokinase expression inhibitors, potency, dose response, plasminogen activation absorbance, OD405 (AID 1914); assay type: functional, Streptococcus pyogenes M1 GAS;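 note: secreted streptokinase activity via plasminogen activation per viability signal from cell pellet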
T7 sequence (P10520 whole entry): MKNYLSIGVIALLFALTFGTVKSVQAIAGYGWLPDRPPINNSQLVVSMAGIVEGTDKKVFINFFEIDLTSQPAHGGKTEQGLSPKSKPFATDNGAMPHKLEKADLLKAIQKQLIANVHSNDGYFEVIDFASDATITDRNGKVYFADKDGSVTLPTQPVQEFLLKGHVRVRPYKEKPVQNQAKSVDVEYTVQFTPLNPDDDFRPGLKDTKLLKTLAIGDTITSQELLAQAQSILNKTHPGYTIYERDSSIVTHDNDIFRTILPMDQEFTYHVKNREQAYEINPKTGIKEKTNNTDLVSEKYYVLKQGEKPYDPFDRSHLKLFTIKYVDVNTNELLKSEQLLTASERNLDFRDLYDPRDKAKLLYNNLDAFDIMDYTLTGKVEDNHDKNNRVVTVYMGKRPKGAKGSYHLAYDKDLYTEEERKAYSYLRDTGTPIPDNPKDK

[22] = molecular target: Cytochrome P450 2D6 (Homo sapiens, UniProt P10635);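 note: CYP2D6 member of a cytochrome P450 panel assay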
Chain of Cytochrome P450 2D6 (P10635 whole entry): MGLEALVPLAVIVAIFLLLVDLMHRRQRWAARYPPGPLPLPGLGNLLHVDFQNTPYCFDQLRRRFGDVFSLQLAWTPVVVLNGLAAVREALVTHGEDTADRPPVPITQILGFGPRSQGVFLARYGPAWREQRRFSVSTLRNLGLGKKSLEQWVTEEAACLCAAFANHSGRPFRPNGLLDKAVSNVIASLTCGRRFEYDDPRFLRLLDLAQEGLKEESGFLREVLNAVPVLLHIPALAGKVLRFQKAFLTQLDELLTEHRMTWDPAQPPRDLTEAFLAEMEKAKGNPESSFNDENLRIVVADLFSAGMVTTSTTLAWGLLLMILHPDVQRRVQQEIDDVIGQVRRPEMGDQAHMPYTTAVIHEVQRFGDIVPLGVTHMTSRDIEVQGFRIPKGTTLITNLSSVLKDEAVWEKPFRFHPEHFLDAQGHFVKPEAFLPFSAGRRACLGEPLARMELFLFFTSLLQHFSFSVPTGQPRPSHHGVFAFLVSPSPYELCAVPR

T4 sequence (P41145 whole entry): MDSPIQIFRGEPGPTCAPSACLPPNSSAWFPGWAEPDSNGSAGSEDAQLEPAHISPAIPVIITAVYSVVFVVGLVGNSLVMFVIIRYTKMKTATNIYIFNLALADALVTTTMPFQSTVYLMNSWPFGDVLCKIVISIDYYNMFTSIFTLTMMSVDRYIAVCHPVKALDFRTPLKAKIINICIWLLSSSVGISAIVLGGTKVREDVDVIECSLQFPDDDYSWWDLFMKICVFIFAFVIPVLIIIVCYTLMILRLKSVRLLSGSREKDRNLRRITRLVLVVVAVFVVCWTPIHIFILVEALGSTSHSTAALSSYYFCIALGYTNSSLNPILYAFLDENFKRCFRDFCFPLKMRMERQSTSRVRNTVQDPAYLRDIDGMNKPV
T5 sequence (P41143 whole entry): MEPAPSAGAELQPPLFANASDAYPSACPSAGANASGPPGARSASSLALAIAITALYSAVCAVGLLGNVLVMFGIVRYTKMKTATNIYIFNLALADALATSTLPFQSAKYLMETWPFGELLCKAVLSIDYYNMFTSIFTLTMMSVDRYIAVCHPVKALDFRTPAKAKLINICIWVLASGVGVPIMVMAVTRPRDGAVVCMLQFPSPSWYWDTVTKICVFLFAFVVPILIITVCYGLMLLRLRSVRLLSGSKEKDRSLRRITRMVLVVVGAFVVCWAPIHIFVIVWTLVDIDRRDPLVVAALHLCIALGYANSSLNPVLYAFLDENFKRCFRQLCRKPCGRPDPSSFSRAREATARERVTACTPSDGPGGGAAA
T3 sequence (P35372 whole entry): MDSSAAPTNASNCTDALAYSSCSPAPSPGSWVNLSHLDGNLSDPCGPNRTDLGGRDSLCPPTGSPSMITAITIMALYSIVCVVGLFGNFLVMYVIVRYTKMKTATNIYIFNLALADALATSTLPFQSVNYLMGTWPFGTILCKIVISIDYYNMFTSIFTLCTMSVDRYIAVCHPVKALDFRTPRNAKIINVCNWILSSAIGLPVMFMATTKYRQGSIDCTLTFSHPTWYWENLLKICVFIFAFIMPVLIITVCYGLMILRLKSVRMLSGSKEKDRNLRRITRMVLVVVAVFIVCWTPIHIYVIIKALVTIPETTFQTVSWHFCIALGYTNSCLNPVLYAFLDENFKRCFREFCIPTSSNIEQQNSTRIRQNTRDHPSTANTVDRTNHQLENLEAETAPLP
T1 sequence (Q9HC97 whole entry): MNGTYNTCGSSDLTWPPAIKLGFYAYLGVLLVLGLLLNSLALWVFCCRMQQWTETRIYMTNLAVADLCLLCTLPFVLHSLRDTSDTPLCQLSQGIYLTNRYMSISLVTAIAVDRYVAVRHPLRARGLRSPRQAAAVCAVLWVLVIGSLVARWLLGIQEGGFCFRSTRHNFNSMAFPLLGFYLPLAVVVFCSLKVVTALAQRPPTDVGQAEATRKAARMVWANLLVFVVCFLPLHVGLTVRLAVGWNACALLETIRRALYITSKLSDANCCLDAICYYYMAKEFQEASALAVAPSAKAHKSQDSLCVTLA
T2 sequence (P11712 whole entry): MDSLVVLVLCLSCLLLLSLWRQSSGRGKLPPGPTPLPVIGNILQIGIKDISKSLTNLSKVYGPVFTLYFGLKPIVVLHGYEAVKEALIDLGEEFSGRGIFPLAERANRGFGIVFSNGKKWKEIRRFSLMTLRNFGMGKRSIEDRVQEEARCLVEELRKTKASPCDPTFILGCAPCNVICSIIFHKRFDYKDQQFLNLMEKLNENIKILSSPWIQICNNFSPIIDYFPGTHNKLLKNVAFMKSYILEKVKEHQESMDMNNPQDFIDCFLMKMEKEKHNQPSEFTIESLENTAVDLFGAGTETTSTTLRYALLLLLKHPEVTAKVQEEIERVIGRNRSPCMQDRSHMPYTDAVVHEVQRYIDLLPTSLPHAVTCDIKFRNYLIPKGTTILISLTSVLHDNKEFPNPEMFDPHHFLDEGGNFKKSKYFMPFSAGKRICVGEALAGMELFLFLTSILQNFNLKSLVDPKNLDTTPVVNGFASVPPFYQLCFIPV
Chain of Cytochrome P450 2C19 (P33261 whole entry): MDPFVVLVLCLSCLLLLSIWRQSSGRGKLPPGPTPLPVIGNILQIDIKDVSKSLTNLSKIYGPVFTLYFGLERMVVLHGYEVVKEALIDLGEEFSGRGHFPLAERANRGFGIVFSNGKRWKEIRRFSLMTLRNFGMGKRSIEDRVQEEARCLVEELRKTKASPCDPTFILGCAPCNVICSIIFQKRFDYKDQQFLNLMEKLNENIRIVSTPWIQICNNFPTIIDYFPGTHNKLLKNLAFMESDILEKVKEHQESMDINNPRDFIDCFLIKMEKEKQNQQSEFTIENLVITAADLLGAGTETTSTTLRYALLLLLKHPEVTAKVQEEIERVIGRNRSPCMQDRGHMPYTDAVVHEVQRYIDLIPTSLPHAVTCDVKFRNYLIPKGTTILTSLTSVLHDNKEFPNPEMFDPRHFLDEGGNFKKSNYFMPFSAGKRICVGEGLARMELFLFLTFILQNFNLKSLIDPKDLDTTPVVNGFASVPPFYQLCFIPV
Chain of G-protein coupled receptor 55 (Q9Y2T6 whole entry): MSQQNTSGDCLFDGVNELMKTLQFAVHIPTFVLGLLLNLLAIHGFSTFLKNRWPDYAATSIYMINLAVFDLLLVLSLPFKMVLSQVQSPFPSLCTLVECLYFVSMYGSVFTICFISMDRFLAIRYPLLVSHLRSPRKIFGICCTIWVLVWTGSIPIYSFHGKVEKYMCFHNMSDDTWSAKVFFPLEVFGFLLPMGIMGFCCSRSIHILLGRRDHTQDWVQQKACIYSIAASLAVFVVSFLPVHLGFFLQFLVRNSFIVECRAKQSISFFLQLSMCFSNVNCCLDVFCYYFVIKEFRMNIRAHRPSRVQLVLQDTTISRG
Chain of CAAX prenyl protease 1 (P47154 whole entry): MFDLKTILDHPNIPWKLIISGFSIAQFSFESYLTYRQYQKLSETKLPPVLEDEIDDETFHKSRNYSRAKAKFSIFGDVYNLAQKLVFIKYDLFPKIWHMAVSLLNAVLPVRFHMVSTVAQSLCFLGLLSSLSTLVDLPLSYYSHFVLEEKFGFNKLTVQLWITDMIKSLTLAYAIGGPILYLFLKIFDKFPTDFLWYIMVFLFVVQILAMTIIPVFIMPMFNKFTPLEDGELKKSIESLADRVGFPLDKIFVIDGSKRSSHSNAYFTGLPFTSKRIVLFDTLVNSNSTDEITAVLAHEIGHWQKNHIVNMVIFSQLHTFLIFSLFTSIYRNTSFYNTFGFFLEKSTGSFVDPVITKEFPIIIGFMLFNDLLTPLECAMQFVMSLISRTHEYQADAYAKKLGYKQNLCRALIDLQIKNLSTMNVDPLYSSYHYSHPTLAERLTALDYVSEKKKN
Chain of Trypsin (P00761 whole entry): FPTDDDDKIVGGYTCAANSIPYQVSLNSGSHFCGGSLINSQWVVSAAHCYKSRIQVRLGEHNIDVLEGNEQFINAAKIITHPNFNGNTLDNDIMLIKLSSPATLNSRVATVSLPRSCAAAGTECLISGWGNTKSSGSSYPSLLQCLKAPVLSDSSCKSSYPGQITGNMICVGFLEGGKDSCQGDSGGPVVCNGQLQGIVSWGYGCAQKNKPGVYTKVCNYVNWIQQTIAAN

Cc1ccc(/C=C2\SC(=S)N(CCCC(=O)Nc3ccc(O)cc3)C2=O)cc1
IC50 [1]: > 32 µM (inactive)
IC50 [2]: 0.744 µM (active)
IC50 [3]: 0.253 µM (active)
IC50 [4]: > 80 µM (inactive)

O=C(c1cc(F)ccc1F)C1CCCN(C(=O)c2ccc3nccnc3c2)C1 (configuration not stated)
AC50 [5]: 78.3 µM (active)

COc1ccc(-c2cc3ccccc3n2CC(O)CNCCO)cc1 (configuration not stated)
AC50 [6]: 17.8 µM (inconclusive)
AC50 [7]: 11.5 µM (active)
AC50 [8]: 17.3 µM (active)

COc1ccc(CSc2nnc(-c3ccccn3)n2Cc2ccco2)cc1
IC50 [9]: > 32 µM (inactive)
EC50 [10]: 7.69 µM (active)
EC50 [11]: > 32 µM (inactive)
IC50 [12]: > 32 µM (inactive)
IC50 [13]: > 32 µM (inactive)
EC50 [14]: 12.4 µM (inactive)
EC50 [15]: > 32 µM (inactive)

CC1(C)N=C(N)N=C(Nc2ccccc2)N1
EC50 [16]: > 150 µM (not active)
AC50 [17]: inactive
EC50 [18]: 1.52 µM (active)
AC50 [19]: inconclusive
AC50 [20]: inactive
EC50 [21]: > 150 µM (not active)
AC50 [22]: 39.8 µM (inconclusive)
